pIC50: −log10 of the molar value. One block for each molecule: values may come before it. Calls of active or inactive are those of the source. No cut-off for these calls is given here.
Assays:
[1] = target: T1, Histone-lysine N-methyltransferase EHMT2 (Homo sapiens, UniProt Q96KQ7); assay: Inhibition of G9a (unknown origin) using biotinylated-histone H3(1-21) peptide as substrate after 3 hrs by AlphaLISA assay
T1 sequence (Q96KQ7 whole entry): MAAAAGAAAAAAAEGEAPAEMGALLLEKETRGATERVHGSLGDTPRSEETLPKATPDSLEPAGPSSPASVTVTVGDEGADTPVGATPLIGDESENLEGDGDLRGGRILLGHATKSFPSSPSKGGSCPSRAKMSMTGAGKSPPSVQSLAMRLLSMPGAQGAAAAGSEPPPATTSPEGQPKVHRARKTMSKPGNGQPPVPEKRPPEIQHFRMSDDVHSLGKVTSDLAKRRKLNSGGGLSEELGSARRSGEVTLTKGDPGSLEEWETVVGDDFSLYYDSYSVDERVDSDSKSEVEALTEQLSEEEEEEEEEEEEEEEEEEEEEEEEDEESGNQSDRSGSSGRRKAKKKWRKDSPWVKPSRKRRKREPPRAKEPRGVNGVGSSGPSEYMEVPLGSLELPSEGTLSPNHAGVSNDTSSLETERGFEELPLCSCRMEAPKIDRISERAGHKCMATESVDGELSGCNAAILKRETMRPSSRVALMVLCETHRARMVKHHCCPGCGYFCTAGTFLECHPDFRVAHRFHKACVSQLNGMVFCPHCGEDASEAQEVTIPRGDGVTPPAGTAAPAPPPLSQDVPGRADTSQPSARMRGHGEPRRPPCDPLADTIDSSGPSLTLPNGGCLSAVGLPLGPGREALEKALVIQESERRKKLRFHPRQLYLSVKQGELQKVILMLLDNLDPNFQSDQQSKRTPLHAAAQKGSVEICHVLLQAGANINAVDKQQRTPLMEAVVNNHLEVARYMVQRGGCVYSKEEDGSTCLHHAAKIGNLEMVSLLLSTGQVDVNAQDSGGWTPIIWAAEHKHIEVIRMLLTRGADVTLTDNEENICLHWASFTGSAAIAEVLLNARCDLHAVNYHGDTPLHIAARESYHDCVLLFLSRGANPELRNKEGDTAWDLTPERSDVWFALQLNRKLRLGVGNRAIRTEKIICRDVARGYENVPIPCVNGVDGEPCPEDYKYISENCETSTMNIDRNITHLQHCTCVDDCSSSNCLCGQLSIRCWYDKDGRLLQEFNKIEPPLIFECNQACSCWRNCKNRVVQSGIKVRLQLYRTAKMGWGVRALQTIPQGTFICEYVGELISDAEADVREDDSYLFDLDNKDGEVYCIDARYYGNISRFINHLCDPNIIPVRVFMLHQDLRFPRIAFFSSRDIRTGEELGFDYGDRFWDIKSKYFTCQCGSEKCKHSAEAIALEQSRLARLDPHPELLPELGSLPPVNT

[2] = target: Histone-lysine N-methyltransferase NSD2 (Homo sapiens) (UniProt O96028); assay: Inhibition of WHSC1 (unknown origin)-mediated incorporation of methyl group from [3H]-SAM into peptide substrate up to 50 uM after 1 hr by scintillation proximity assay
[3] = target: EZH1/SUZ12/EED/AEBP2/RBBP4 complex (Homo sapiens) (UniProt Q92800+O75530+Q15022+Q6ZN18+Q09028); assay: Inhibition of EZH1/EED/SUZ12/AEBP2/RBBP4 complex (unknown origin)-mediated incorporation of methyl group from [3H]-SAM into peptide substrate up to 50 uM by scintillation proximity assay; type: protein-complex assay
[4] = target: DNA (cytosine-5)-methyltransferase 1 (Homo sapiens) (UniProt P26358); assay: Inhibition of DNMT1 (unknown origin)-mediated incorporation of methyl group from [3H]-SAM into dsDNA substrate up to 50 uM by scintillation proximity assay
[5] = target: Histone-lysine N-methyltransferase EHMT1 (Homo sapiens, UniProt Q9H9B1); assay: Inhibition of GLP (unknown origin)-mediated incorporation of methyl group from [3H]-SAM into peptide substrate by scintillation proximity assay
PC-3 [6] = assay: Effect on total histone 3 protein level in human PC3 cells at 0.01 to 10 uM after 72 hrs by Western blotting analysis; type: functional, cell-based
[7] = target: Protein arginine N-methyltransferase 3 (Homo sapiens) (UniProt O60678); assay: Inhibition of PRMT3 (unknown origin)-mediated incorporation of methyl group from [3H]-SAM into peptide substrate up to 50 uM by scintillation proximity assay
[8] = target: MLL1/ASH2L/RBBP5/WDR5 complex (Homo sapiens) (UniProt P61964+Q03164+Q9UBL3+Q15291); assay: Inhibition of MLL1/ASH2L/RBBP5/WDR5 complex (unknown origin)-mediated incorporation of methyl group from [3H]-SAM into peptide substrate up to 50 uM by scintillation proximity assay; type: protein-complex assay
[9] = target: Histone-lysine N-methyltransferase SETD7 (Homo sapiens) (UniProt Q8WTS6); assay: Inhibition of SETD7 (unknown origin)-mediated incorporation of methyl group from [3H]-SAM into peptide substrate up to 50 uM by scintillation proximity assay
[10] = target: Histone-lysine N-methyltransferase KMT5B (Homo sapiens) (UniProt Q4FZB7); assay: Inhibition of SUV420H1 (unknown origin)-mediated incorporation of methyl group from [3H]-SAM into peptide substrate up to 50 uM by scintillation proximity assay
[11] = target: Histone-lysine N-methyltransferase SETDB1 (Homo sapiens) (UniProt Q15047); assay: Inhibition of SETDB1 (unknown origin)-mediated incorporation of methyl group from [3H]-SAM into peptide substrate up to 50 uM by scintillation proximity assay
[12] = target: Histone-lysine N-methyltransferase SMYD3 (Homo sapiens) (UniProt Q9H7B4); assay: Inhibition of SMYD3 (unknown origin)-mediated incorporation of methyl group from [3H]-SAM into peptide substrate up to 50 uM by scintillation proximity assay
[13] = target: Histone-lysine N-methyltransferase, H3 lysine-79 specific (Homo sapiens) (UniProt Q8TEK3); assay: Inhibition of DOT1L (unknown origin)-mediated incorporation of methyl group from [3H]-SAM into peptide substrate up to 50 uM after 1 hr by scintillation proximity assay
[14] = target: Histone-lysine N-methyltransferase NSD3 (Homo sapiens) (UniProt Q9BZ95); assay: Inhibition of WHSC1L (unknown origin)-mediated incorporation of methyl group from [3H]-SAM into peptide substrate up to 50 uM after 1 hr by scintillation proximity assay
[15] = target: Histone-lysine N-methyltransferase SETD2 (Homo sapiens) (UniProt Q9BYW2); assay: Inhibition of SETD2 (unknown origin)-mediated incorporation of methyl group from [3H]-SAM into peptide substrate up to 50 uM by scintillation proximity assay
[16] = target: EZH2/SUZ12/EED complex (Homo sapiens) (UniProt Q15910+O75530+Q15022); assay: Inhibition of EZH2/SUZ12/EED complex (unknown origin)-mediated incorporation of methyl group from [3H]-SAM into peptide substrate up to 50 uM by scintillation proximity assay; type: protein-complex assay
[17] = target: N-lysine methyltransferase SMYD2 (Homo sapiens) (UniProt Q9NRG4); assay: Inhibition of SMYD2 (unknown origin)-mediated incorporation of methyl group from [3H]-SAM into peptide substrate up to 50 uM by scintillation proximity assay
PC-3 [18] = assay: Effect on total H3K36Me2 protein level in human PC3 cells at 0.01 to 10 uM after 72 hrs by Western blotting analysis; type: functional, cell-based
[19] = target: Protein arginine N-methyltransferase 6 (Homo sapiens) (UniProt Q96LA8); assay: Inhibition of PRMT6 (unknown origin)-mediated incorporation of methyl group from [3H]-SAM into peptide substrate up to 50 uM by scintillation proximity assay
[20] = target: Protein arginine N-methyltransferase 1 (Homo sapiens) (UniProt Q99873); assay: Inhibition of PRMT1 (unknown origin)-mediated incorporation of methyl group from [3H]-SAM into peptide substrate up to 50 uM by scintillation proximity assay
[21] = target: Histone-lysine N-methyltransferase EHMT2 (Homo sapiens) (UniProt Q96KQ7); details: PC-3, 3 uM
Description: Inhibition of G9a in human PC3 cells assessed as reduction in H3K9Me2 level at 3 uM after 72 hrs by Western blotting analysis relative to control

[22] = target: N-lysine methyltransferase KMT5A (Homo sapiens) (UniProt Q9NQR1); assay: Inhibition of SETD8 (unknown origin)-mediated incorporation of methyl group from [3H]-SAM into peptide substrate up to 50 uM by scintillation proximity assay
[23] = target: PRMT5/MEP50 complex (Homo sapiens) (UniProt O14744+Q9BQA1); assay: Inhibition of PRMT5/MEP50 complex (unknown origin)-mediated incorporation of methyl group from [3H]-SAM into peptide substrate up to 50 uM by scintillation proximity assay; type: protein-complex assay
PC-3 [24] = assay: Effect on total H3K27Me3 protein level in human PC3 cells at 0.01 to 10 uM after 72 hrs by Western blotting analysis; type: functional, cell-based
[25] = target: Histone-lysine N-methyltransferase SUV39H2 (Homo sapiens) (UniProt Q9H5I1); assay: Inhibition of SUV39H2 (unknown origin)-mediated incorporation of methyl group from [3H]-SAM into peptide substrate up to 50 uM by scintillation proximity assay
[26] = target: Protein arginine N-methyltransferase 8 (Homo sapiens) (UniProt Q9NR22); assay: Inhibition of PRMT8 (unknown origin)-mediated incorporation of methyl group from [3H]-SAM into peptide substrate up to 50 uM by scintillation proximity assay
[27] = target: Histone-lysine N-methyltransferase KMT5C (Homo sapiens) (UniProt Q86Y97); assay: Inhibition of SUV420H2 (unknown origin)-mediated incorporation of methyl group from [3H]-SAM into peptide substrate up to 50 uM by scintillation proximity assay
Chain of Histone-lysine N-methyltransferase KMT5C (Homo sapiens) (Q86Y97 whole entry, looked up): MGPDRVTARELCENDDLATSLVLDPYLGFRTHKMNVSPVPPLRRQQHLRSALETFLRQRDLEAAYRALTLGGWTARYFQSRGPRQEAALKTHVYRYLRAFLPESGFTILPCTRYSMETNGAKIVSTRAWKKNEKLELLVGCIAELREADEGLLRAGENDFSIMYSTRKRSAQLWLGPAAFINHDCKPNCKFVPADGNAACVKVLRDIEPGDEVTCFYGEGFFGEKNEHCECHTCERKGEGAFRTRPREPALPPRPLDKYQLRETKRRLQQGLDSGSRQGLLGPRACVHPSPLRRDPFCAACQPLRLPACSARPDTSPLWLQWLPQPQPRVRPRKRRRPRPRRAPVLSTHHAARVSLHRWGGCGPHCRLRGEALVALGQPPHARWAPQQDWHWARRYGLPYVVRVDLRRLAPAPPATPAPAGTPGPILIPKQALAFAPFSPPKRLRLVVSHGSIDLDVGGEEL

Chain of Protein arginine N-methyltransferase 3 (Homo sapiens) (O60678 2-531 limits assumed): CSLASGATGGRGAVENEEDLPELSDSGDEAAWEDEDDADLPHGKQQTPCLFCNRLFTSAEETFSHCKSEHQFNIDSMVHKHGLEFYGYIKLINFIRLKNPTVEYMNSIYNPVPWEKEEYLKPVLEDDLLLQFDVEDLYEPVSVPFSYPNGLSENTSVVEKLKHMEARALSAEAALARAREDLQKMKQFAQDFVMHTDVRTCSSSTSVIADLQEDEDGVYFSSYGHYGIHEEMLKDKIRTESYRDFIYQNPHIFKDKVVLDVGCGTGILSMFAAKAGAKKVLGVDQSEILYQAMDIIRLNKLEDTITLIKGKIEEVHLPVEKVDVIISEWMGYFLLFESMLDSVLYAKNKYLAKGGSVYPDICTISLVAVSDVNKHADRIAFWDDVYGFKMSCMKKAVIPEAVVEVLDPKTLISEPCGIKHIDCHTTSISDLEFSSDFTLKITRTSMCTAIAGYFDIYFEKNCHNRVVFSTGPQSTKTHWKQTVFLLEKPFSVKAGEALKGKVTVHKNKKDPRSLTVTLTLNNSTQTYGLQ
Chain of Histone-lysine N-methyltransferase NSD3 (Homo sapiens) (Q9BZ95 whole entry): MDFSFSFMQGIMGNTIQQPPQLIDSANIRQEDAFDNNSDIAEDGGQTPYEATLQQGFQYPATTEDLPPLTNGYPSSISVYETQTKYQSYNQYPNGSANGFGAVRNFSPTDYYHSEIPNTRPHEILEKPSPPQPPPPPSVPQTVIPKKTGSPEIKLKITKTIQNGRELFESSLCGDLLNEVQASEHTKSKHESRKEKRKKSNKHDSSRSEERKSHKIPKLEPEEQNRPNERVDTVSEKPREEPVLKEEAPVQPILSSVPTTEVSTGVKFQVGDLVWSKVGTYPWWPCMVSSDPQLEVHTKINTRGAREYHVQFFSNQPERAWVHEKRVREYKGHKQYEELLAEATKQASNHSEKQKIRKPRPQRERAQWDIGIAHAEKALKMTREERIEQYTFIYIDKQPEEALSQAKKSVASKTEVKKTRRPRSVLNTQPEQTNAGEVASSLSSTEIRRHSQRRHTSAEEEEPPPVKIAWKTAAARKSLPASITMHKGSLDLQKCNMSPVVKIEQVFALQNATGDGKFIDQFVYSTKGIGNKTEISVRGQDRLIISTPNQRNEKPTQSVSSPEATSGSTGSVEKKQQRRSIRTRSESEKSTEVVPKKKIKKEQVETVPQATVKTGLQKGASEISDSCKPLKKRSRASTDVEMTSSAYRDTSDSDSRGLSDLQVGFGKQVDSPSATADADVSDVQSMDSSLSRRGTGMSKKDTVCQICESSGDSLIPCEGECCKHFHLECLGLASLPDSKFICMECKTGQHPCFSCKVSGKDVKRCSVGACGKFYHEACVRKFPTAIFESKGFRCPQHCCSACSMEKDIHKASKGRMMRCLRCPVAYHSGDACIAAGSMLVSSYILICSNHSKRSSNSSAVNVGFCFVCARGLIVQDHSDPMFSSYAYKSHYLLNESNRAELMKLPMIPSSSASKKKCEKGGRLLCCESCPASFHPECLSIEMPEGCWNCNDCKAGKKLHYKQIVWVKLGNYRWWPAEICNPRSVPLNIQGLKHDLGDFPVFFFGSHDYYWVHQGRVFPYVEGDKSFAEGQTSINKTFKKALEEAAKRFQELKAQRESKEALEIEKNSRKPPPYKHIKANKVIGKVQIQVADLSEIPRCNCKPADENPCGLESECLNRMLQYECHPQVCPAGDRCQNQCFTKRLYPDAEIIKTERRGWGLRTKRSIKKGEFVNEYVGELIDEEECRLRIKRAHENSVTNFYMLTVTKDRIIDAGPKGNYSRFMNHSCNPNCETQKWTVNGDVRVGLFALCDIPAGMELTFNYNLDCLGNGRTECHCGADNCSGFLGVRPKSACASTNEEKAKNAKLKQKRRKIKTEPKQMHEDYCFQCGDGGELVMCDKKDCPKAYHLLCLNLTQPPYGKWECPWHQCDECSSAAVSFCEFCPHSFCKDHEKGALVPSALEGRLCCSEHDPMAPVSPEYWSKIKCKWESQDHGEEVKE
Chain of Histone-lysine N-methyltransferase SETD2 (Homo sapiens) (Q9BYW2 whole entry): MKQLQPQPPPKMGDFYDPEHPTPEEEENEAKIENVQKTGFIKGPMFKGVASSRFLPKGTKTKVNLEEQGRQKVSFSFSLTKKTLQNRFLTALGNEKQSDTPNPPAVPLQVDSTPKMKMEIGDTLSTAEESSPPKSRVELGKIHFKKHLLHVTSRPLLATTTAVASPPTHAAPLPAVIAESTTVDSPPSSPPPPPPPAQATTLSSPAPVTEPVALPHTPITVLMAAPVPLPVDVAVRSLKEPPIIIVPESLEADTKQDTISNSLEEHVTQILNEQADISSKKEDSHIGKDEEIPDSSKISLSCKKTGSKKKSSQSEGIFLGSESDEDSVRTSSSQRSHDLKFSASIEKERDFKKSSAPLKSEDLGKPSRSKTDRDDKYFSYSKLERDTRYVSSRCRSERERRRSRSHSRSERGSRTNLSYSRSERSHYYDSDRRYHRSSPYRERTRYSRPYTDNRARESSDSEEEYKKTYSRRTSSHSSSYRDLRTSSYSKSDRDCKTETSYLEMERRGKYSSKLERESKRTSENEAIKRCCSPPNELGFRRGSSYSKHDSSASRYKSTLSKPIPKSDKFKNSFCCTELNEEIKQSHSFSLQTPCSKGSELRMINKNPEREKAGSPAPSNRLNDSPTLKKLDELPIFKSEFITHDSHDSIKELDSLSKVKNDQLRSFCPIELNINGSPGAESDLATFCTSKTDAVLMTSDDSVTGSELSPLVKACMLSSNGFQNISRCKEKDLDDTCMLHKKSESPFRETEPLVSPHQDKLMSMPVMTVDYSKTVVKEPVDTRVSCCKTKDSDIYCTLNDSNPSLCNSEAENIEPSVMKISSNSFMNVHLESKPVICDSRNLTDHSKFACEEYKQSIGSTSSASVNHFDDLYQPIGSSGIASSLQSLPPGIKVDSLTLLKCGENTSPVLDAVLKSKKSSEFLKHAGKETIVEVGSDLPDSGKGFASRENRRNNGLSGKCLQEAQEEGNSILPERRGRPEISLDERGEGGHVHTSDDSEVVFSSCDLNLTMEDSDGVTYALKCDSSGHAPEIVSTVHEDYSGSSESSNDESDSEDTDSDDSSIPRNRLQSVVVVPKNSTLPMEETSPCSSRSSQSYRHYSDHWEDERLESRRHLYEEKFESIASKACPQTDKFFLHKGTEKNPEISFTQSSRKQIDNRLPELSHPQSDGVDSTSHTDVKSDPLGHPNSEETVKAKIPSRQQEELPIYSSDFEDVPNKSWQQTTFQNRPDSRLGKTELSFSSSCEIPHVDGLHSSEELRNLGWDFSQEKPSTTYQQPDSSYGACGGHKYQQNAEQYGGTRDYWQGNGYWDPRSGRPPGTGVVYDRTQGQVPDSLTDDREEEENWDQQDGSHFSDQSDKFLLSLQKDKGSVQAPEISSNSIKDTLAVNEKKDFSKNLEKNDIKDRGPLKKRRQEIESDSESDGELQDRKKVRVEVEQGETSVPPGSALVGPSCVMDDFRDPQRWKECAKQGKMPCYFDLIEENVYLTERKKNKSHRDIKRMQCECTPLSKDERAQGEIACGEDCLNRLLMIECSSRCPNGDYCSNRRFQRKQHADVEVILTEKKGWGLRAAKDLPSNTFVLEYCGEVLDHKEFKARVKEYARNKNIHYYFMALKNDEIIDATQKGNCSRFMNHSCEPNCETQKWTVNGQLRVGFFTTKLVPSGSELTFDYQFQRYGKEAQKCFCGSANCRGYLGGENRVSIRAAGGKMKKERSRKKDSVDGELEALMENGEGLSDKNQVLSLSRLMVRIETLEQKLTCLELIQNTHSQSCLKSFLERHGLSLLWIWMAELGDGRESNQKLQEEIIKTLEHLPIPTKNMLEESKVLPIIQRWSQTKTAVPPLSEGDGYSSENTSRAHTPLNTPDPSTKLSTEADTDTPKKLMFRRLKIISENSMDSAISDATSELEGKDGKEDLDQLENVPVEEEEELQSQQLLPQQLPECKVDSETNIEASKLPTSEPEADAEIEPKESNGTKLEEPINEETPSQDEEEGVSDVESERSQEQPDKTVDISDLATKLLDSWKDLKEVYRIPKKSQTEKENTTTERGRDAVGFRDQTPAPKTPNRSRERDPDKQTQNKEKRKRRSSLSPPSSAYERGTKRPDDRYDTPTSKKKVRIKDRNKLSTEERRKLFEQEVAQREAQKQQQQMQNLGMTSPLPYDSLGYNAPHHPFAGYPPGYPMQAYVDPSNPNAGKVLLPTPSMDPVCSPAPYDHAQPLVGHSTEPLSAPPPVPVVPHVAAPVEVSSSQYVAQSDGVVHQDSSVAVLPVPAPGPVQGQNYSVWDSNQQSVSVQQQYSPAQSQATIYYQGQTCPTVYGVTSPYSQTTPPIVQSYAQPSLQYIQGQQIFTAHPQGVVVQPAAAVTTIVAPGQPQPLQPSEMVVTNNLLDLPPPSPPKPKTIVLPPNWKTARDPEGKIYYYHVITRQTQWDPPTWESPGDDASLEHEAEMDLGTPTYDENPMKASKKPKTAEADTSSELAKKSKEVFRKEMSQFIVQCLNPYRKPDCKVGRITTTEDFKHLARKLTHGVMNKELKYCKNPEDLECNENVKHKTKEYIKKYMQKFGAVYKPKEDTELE

Compound: COc1cc2c(cc1OCCCN1CC[C@@H](F)C1)N=C(N)C21CCC1
pIC50 [1]: 8.43

Compound: COc1cc2c(cc1OCCCN1CCCC1)N=C(N)C21CCC1
inhibition [2]: inactive
inhibition [3]: inactive
inhibition [4]: inactive
pIC50 [5]: 7.42
Activity (PC-3 [6]): inactive
inhibition [7]: inactive
inhibition [8]: inactive
inhibition [9]: inactive
inhibition [10]: inactive
inhibition [11]: inactive
inhibition [12]: inactive
inhibition [13]: inactive
inhibition [14]: inactive
inhibition [15]: inactive
inhibition [16]: inactive
inhibition [17]: inactive
Activity (PC-3 [18]): inactive
inhibition [19]: inactive
inhibition [20]: inactive
inhibition [21]: 50%
inhibition [22]: inactive
inhibition [23]: inactive
Activity (PC-3 [24]): inactive
inhibition [25]: inactive
inhibition [26]: inactive
inhibition [27]: inactive

Compound: COc1cc2c(NC3CCN(C(C)C)CC3)nc(C3CCCCC3)nc2cc1OCCCN1CCCC1
Activity (PC-3 [6]): inactive
Activity (PC-3 [18]): inactive
inhibition [21]: 50%
Activity (PC-3 [24]): inactive

The next lines start with the values.

pIC50 [1]: 7.74
Compound: COc1cc2c(cc1OCCCN1CC[C@H](F)C1)N=C(N)C21CCC1

pIC50 [1]: 4.84
Compound: COc1cc2cc(N)[nH]c2cc1OC

— ChEMBL document CHEMBL3108684, “Discovery and development of potent and selective inhibitors of histone methyltransferase g9a” (ACS Med Chem Lett, 2014)
